This note sets out measurements from PubChem BioAssay (NCI).

Test systems include HL-60(TB) leukemia; HOP-62 NSCLC; HS 578T breast; NCI-H522 lung; NCI/ADR-RES ovarian; OVCAR-4 ovarian; SF-539 CNS; SK-MEL-5 melanoma; T-47D breast; UACC-62 melanoma.
Assay in all cases: DTP human tumour cell line panel, 48 h

Where “and” joins values, the source holds several entries; their conditions need not be identical. Equal entries are not always repeated.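 Results reflect a 48-hour exposure of cells in 96-well plates to compound at five concentrations. Here, GI50 denotes the concentration required for 50% inhibition of growth. The concentration for full growth arrest is given as TGI.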

By GI50 is commonly meant the concentration giving 50% growth inhibition. The TGI is the concentration at which net growth stops. A high value points to less potent growth arrest. On to `COc1cc(-c2csc(NC(=O)Nc3ccc(Cl)cc3)n2)cc(OC)c1OC`, for which the GI50 in the assay on HL-60(TB) leukemia was 2.79 µM; in the assay with HOP-62 NSCLC it was 2.65 µM; with HS 578T breast, 3.58 µM; with NCI-H522 lung, 2.34 µM; in the assay on NCI/ADR-RES ovarian, 2.7 µM; in the assay on OVCAR-4 ovarian it was 2.89 µM. Further, the GI50 with SF-539 CNS was 2.98 µM; in the assay with SK-MEL-5 melanoma, 2.2 µM; in the assay on T-47D breast, 1.91 µM; in the assay with UACC-62 melanoma, 1.93 µM. In addition, the TGI is 6.83 µM in the assay with HL-60(TB) leukemia; 7.76 µM with HOP-62 NSCLC; 20.3 µM in the assay with HS 578T breast; 6.95 µM in the assay with NCI-H522 lung; 8.65 µM in the assay with NCI/ADR-RES ovarian; over 49.6 µM with OVCAR-4 ovarian. Also, the TGI in the assay on SF-539 CNS came out at 13.7 µM; with SK-MEL-5 melanoma, 5.2 µM; with T-47D breast it was 6.29 µM; in the assay on UACC-62 melanoma, 4.22 µM.
Regarding `CC[C@@H]1C(=O)N(C)c2cnc(Nc3ccc(C(=O)NC4CCC(N5CCN(CC6CC6)CC5)CC4)cc3OC)nc2N1C(C)C` (stereo not given in full), the GI50 in the assay on HL-60(TB) leukemia is 0.00286 µM and < 0.0167 µM; in the assay with HOP-62 NSCLC, 0.0208 µM and 0.034 µM; in the assay with HS 578T breast, 0.0323 µM and 0.111 µM; with NCI-H522 lung, 0.00462 µM and < 0.0115 µM; in the assay with NCI/ADR-RES ovarian it was 0.249 µM and 0.245 µM; in the assay with OVCAR-4 ovarian, 0.89 µM and 0.466 µM. Further, the GI50 in the assay with SF-539 CNS is 0.0409 µM and 0.0372 µM; in the assay with SK-MEL-5 melanoma, 0.0409 µM and 0.0472 µM; in the assay on T-47D breast it was 0.155 µM and 0.113 µM; in the assay on UACC-62 melanoma, 0.0356 µM and 0.0388 µM. In addition, the TGI in the assay on HL-60(TB) leukemia was 0.0596 µM and 0.0871 µM; in the assay with HOP-62 NSCLC it was > 8.64 µM and 3.93 µM; in the assay with HS 578T breast, 1.97 µM; in the assay with NCI-H522 lung, 0.0822 µM and 0.0564 µM; in the assay on NCI/ADR-RES ovarian, > 10 µM and 28.9 µM; in the assay with OVCAR-4 ovarian, > 10 µM and 19 µM. For the same compound, the TGI with SF-539 CNS is 1.36 µM and 1.48 µM; in the assay with SK-MEL-5 melanoma it was 0.517 µM and 0.654 µM; in the assay on T-47D breast it was > 10 µM and 21.9 µM; in the assay with UACC-62 melanoma, > 8.3 µM and 13.3 µM.
In the case of `COc1ccc2c(c1[N+](=O)[O-])CC[C@@H]1[C@@H]2CC[C@]2(C)C(=O)CC[C@@H]12`, the GI50 with HL-60(TB) leukemia is over 1000 µM; with HOP-62 NSCLC it was 322 µM; in the assay on HS 578T breast it was 119 µM; in the assay on NCI-H522 lung, 590 µM; with NCI/ADR-RES ovarian, 515 µM; in the assay with OVCAR-4 ovarian, 228 µM. The GI50 with SF-539 CNS is 300 µM; with SK-MEL-5 melanoma, 502 µM; in the assay with T-47D breast, 675 µM; with UACC-62 melanoma, 387 µM. The TGI in the assay on HOP-62 NSCLC was > 6.71 µM and 639 µM; with NCI-H522 lung, over 957 µM; with NCI/ADR-RES ovarian, over 1000 µM; in the assay on SF-539 CNS, over 890 µM; in the assay with SK-MEL-5 melanoma, over 1000 µM; with T-47D breast, over 1000 µM.
As to `C[C@]12CC[C@H]3[C@@H](CCC4=CC(=O)CC[C@@]43C)[C@]1(O)CC[C@]2(O)C(=O)CO`, the TGI in the assay with HL-60(TB) leukemia, with HOP-62 NSCLC, with HS 578T breast, in the assay with NCI-H522 lung, in the assay with NCI/ADR-RES ovarian and with OVCAR-4 ovarian was over 100 µM in each case. For the same compound, the TGI with SF-539 CNS, with SK-MEL-5 melanoma, in the assay with T-47D breast and in the assay with UACC-62 melanoma was over 100 µM throughout.
In the case of `CC(=O)Nc1ccc(CC[C@H]2CCC/C=C/[C@@H]3C[C@H](O)C[C@H]3[C@H](O)/C=C/C(=O)O2)cc1`, the GI50 was 0.337 µM in the assay on HL-60(TB) leukemia; 0.281 µM in the assay with HOP-62 NSCLC; 0.0674 µM in the assay on HS 578T breast; 0.261 µM in the assay on NCI-H522 lung; 0.819 µM in the assay with NCI/ADR-RES ovarian; 0.105 µM with OVCAR-4 ovarian. In addition, the GI50 is 0.423 µM in the assay on SF-539 CNS, 0.0188 µM with SK-MEL-5 melanoma, 0.29 µM in the assay on T-47D breast and 0.0434 µM in the assay with UACC-62 melanoma. The TGI was 3.95 µM with HL-60(TB) leukemia; over 93.7 µM in the assay with HS 578T breast; 0.654 µM in the assay with NCI-H522 lung; over 100 µM in the assay with NCI/ADR-RES ovarian; over 100 µM with SF-539 CNS; 0.0348 µM with SK-MEL-5 melanoma. The compound further had a TGI in the assay with UACC-62 melanoma of over 92.4 µM.
On to `COc1cc2c(cc1OCCCCCOc1ccc(-c3nc4ccccc4s3)cc1)N=C[C@@H]1CCCN1C2=O`, for which the GI50 in the assay with HL-60(TB) leukemia was 1.35 µM; in the assay on HOP-62 NSCLC it was 1.62 µM; in the assay with HS 578T breast, 2.02 µM; in the assay on NCI-H522 lung, 1.72 µM; in the assay on NCI/ADR-RES ovarian, 2.55 µM; in the assay on OVCAR-4 ovarian, 3.02 µM. Moreover, the GI50 is 1.58 µM in the assay with SF-539 CNS, 0.934 µM in the assay with SK-MEL-5 melanoma, 0.799 µM with T-47D breast and 3.27 µM in the assay on UACC-62 melanoma. The TGI was 8.72 µM in the assay with HL-60(TB) leukemia; 7.59 µM with HOP-62 NSCLC; 7.68 µM in the assay with HS 578T breast; 13.7 µM with NCI-H522 lung; 15.6 µM with NCI/ADR-RES ovarian; over 76.5 µM in the assay on OVCAR-4 ovarian. Further, the TGI in the assay with SF-539 CNS was determined as 6.09 µM; in the assay on SK-MEL-5 melanoma, 3.88 µM; with T-47D breast it was 4.11 µM; in the assay with UACC-62 melanoma it was 7.93 µM.
For `CN(C)CCN1C(=O)c2cccc3cc(N)cc(c23)C1=O`, the GI50 in the assay with HL-60(TB) leukemia is 5.29 µM; in the assay on HOP-62 NSCLC, 3.08 µM; with HS 578T breast, 10.4 µM; with NCI-H522 lung, 3.21 µM; with SK-MEL-5 melanoma, 1.88 µM; with T-47D breast, 3.66 µM. Further, the GI50 with UACC-62 melanoma was 2.89 µM. For the same compound, the TGI in the assay on HL-60(TB) leukemia was 59.2 µM and 16.2 µM; with HOP-62 NSCLC, 18.8 µM and 11.4 µM; in the assay with HS 578T breast, 50.9 µM and 21.2 µM; in the assay on NCI-H522 lung, 11.6 µM and 10.3 µM; with NCI/ADR-RES ovarian it was > 67.2 µM and 12.2 µM; in the assay with OVCAR-4 ovarian it was 33.7 µM and 18.3 µM. Moreover, the TGI in the assay on SF-539 CNS was 18.2 µM and 14.7 µM; in the assay with SK-MEL-5 melanoma, 4.44 µM and 6.46 µM; with T-47D breast, > 57.1 µM and 32.4 µM; in the assay with UACC-62 melanoma, 11.7 µM and 8.02 µM.
